From BindingDB's records for doi:10.7270/Q2MP51PC (Pcmd, 2008)
pIC50: −log10 of the molar value.

What follows are molecules tested against T1, Complement C1s subcomponent (Homo sapiens, UniProt P09871) (assay: concentration-response of complement C1s inhibitors – biochemical, dose response (AID 787)).
T1 sequence (P09871 whole entry): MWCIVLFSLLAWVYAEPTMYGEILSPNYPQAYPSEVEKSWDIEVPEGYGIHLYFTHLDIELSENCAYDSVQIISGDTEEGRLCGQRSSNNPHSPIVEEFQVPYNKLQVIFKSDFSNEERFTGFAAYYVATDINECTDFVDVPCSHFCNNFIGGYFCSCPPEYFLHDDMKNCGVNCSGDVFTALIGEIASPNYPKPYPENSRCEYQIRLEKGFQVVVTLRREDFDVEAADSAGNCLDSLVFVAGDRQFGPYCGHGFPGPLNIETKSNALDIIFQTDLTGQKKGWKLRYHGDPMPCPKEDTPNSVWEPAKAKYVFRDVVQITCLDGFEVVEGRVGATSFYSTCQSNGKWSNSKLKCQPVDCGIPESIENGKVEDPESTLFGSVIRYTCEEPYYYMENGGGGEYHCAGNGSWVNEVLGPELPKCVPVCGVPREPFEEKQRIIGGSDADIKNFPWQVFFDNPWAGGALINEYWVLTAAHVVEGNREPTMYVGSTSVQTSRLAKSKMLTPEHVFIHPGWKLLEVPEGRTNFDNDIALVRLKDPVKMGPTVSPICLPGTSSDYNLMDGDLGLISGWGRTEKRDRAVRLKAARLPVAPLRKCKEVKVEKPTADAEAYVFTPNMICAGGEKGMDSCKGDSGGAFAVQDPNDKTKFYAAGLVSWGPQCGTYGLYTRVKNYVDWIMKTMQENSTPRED

SMILES	pIC50
Cc1ccc(S(=O)(=O)n2nc(OC(=O)c3cccs3)cc2N)cc1	< 4.30
CCOC(=O)c1c(C)n(C(=O)c2ccco2)c(=O)n1C(=O)c1ccco1	5.07
CCSc1ccccc1C(=O)n1nnc2ccccc21	4.51
O=C(c1ccc2c(c1)OCO2)n1nnc2ccccc21	6.07
COc1cccc(C2=Nc3nnnn3C(c3cccc(OC)c3OC)C2)c1 (stereo not given)	< 4.30
COc1cccc(N2C(=O)N(c3ccccc3Cl)C3CS(=O)(=O)CC32)c1 (stereo not given) [1-(2-chlorophenyl)-3-(3-methoxyphenyl)tetrahydro-1H-thieno[3,4-d]imidazol-2(3H)-one 5,5-dioxide]	< 4.30
CCN1CCN(c2ccc(-n3c(C)nc4c(cnn4-c4ccccc4Cl)c3=O)cc2)CC1 [1-(2-chlorophenyl)-5-[4-(4-ethyl-1-piperazinyl)phenyl]-6-methyl-4-pyrazolo[3,4-d]pyrimidinone]	< 4.30
COc1ccc(-c2nc(SC)n(C(=O)c3ccco3)n2)cc1 [1-(2-furoyl)-3-(4-methoxyphenyl)-5-(methylthio)-1H-1,2,4-triazole]	4.81
CCOC(=O)C1CCN(C(=O)c2cc(OCC)c(OCC)c(OCC)c2)CC1 [1-(3,4,5-triethoxybenzoyl)isonipecotic acid ethyl ester]	< 4.30
O=C(c1csc2c1CCCC2)n1cccn1 [1-(4,5,6,7-tetrahydro-1-benzothien-3-ylcarbonyl)-1H-pyrazole]	5.42
CCOC(=O)c1nnn(-c2nonc2N)c1CN(C)C1CCCCC1 [1-(4-amino-1,2,5-oxadiazol-3-yl)-5-[[cyclohexyl(methyl)amino]methyl]-4-triazolecarboxylic acid ethyl ester]	< 4.30
CCOc1ccc(-n2c(O)cc(N3CCN(c4ccccc4F)CC3)c2O)cc1 [1-(4-ethoxyphenyl)-3-[4-(2-fluorophenyl)-1-piperazinyl]-2,5-pyrrolidinedione]	< 4.30
CC(C)CN(CC(C)C)S(=O)(=O)N1CCC(C(=O)NCc2ccc(F)cc2)CC1 [1-(diisobutylsulfamoyl)-N-(4-fluorobenzyl)isonipecotamide]	< 4.30
CCOC(=O)C1CCN(C(=O)CSc2ccccc2)CC1 [1-[1-oxo-2-(phenylthio)ethyl]-4-piperidinecarboxylic acid ethyl ester]	< 4.30
CCCC(=O)n1nc(-c2ccco2)nc1SCc1ccccc1 [1-[3-(2-furanyl)-5-(phenylmethylthio)-1,2,4-triazol-1-yl]-1-butanone]	< 4.30
CCC(=O)n1nc(-c2ccco2)nc1SCc1ccccc1 [1-[3-(2-furanyl)-5-(phenylmethylthio)-1,2,4-triazol-1-yl]-1-propanone]	< 4.30
COc1ccc(C(=O)n2nnc3ccccc32)cc1Br [1-benzotriazolyl-(3-bromo-4-methoxyphenyl)methanone]	5.25

SMILES	pIC50
Cn1c(=O)c2[nH]c(NCC3CCCO3)nc2n(-c2ccccc2)c1=O (stereo not given) [1-methyl-8-(2-oxolanylmethylamino)-3-phenyl-7H-purine-2,6-dione]	< 4.30
COCCn1c(C)cc(C(=O)CSc2nc3ccccc3o2)c1C [2-(1,3-benzoxazol-2-ylsulfanyl)-1-[1-(2-methoxyethyl)-2,5-dimethyl-pyrrol-3-yl]ethanone]	< 4.30
Cc1sc2nc(-c3ccco3)oc(=O)c2c1C [2-(2-furanyl)-5,6-dimethyl-4-thieno[2,3-d][1,3]oxazinone]	< 4.30
Cc1cc(NS(=O)(=O)c2ccc(NC(=O)COc3ccccc3C(C)C)cc2)no1 [2-(2-isopropylphenoxy)-N-[4-[(5-methylisoxazol-3-yl)sulfamoyl]phenyl]acetamide]	< 4.30
COc1ccc(CC(=O)Nc2cccc(-c3nnc(-c4cccc(C)c4)o3)c2)cc1OC [2-(3,4-dimethoxyphenyl)-N-[3-[5-(3-methylphenyl)-1,3,4-oxadiazol-2-yl]phenyl]acetamide]	< 4.30
COC(=O)COc1cccc(NC(=O)c2ccccc2)c1 [2-(3-benzamidophenoxy)acetic acid methyl ester]	< 4.30
Cc1cc(C)c2c(CC(=O)NCc3ccco3)coc2c1 [2-(4,6-dimethyl-1-benzofuran-3-yl)-N-(2-furylmethyl)acetamide]	< 4.30
O=C(O)CCCC(=O)Nc1ccccc1C(=O)O [2-(4-carboxybutanoylamino)benzoic acid]	< 4.30
COc1ccc(NC(=O)CSC2CCCCC2)cc1 [2-(cyclohexylthio)-N-(4-methoxyphenyl)acetamide]	< 4.30
O=C(Cc1ccc(-c2ccccc2)cc1)NCCN1CCOCC1 [2-Biphenyl-4-yl-N-(2-morpholin-4-yl-ethyl)-acetamide]	< 4.30
O=c1oc(-c2ccco2)nc2ccccc12 [2-Furan-2-yl-benzo[d][1,3]oxazin-4-one]	5.34
CC(C)(C)NC(=O)C(c1ccco1)N(Cc1ccc2c(c1)OCO2)C(=O)Cn1nnc2ccccc21 (stereo not given) [2-[1,3-benzodioxol-5-ylmethyl-[2-(1-benzotriazolyl)-1-oxoethyl]amino]-N-tert-butyl-2-(2-furanyl)acetamide]	< 4.30
CCOC(=O)COc1ccc(S(=O)(=O)NCCC2=CCCCC2)cc1 [2-[4-[2-(1-cyclohexenyl)ethylsulfamoyl]phenoxy]acetic acid ethyl ester]	< 4.30
CCOC(=O)Cc1nnc(NC(=O)C(CC)Sc2nnc3c4ccccc4n(C)c3n2)s1 (stereo not given) [2-[5-[2-[(5-methyl-[1,2,4]triazin[5,6-b]indol-3-yl)thio]butanoylamino]-1,3,4-thiadiazol-2-yl]acetic acid ethyl ester]	< 4.30
COC(=O)Cc1n[nH]c2c1C1(C(=O)N(Cc3ccccc3)c3ccccc31)C(C#N)C(=N)O2 (stereo not given) [2-[6-amino-5-cyano-2'-oxo-1'-(phenylmethyl)-3-spiro[2H-pyrano[2,3-c]pyrazole-4,3'-indole]yl]acetic acid methyl ester]	< 4.30
Cc1ccc(-n2c(SCC(=O)N3CCCC3)nc3c(c2=O)SCC3)cc1 [2-[(2-keto-2-pyrrolidino-ethyl)thio]-3-(p-tolyl)-6,7-dihydrothieno[3,2-d]pyrimidin-4-one]	< 4.30
CCOC(=O)c1c(-c2ccc(C)o2)csc1NC(=O)CN1CCN(CC)CC1 [2-[[2-(4-ethyl-1-piperazinyl)-1-oxoethyl]amino]-4-(5-methyl-2-furanyl)-3-thiophenecarboxylic acid ethyl ester]	< 4.30

Other lines, results leading:

pIC50	SMILES
5.37	C#CCOC(=O)c1ccccc1C(=O)n1nnc2ccccc21
< 4.30	O=C(O)[C@@H](c1ccccc1)N1Cc2ccccc2C1=O
< 4.30	O=C(O)COCc1nc2ccccc2[nH]1
< 4.30	O=C(c1ccco1)N1C(=O)c2cccc3cccc1c23 [1-(2-furoyl)benzo[cd]indol-2(1H)-one]
< 4.30	Cc1ccc(Cn2ncc3c(N4CCN(c5ccccc5C)CC4)ncnc32)cc1 [1-(4-methylbenzyl)-4-[4-(2-methylphenyl)-1-piperazinyl]-1H-pyrazolo[3,4-d]pyrimidine]
< 4.30	COc1cc(-c2nnc(SCC(=O)c3cc(C)n(CC4CCCO4)c3C)o2)cc(OC)c1OC (stereo not given) [1-[2,5-dimethyl-1-(2-oxolanylmethyl)-3-pyrrolyl]-2-[[5-(3,4,5-trimethoxyphenyl)-1,3,4-oxadiazol-2-yl]thio]ethanone]
< 4.30	O=C(Nc1cccc(F)c1)c1c(F)c(F)c(F)c(F)c1F [2,3,4,5,6-pentafluoro-N-(3-fluorophenyl)benzamide]
< 4.30	Cc1nc(CNS(=O)(=O)c2cc(C)c(C)cc2C)cs1 [2,4,5-trimethyl-N-[(2-methyl-1,3-thiazol-4-yl)methyl]benzenesulfonamide]
< 4.30	O=C1CCCC2=NC(Nc3nc4ccccc4o3)=NC3(CCCCC3)C12 (stereo not given) [2-(1,3-benzoxazol-2-ylamino)-5-spiro[1,6,7,8-tetrahydroquinazoline-4,1'-cyclohexane]one]
< 4.30	Cc1c(NC(=O)C2Cc3ccccc3CN2C(=O)c2ccco2)c(=O)n(-c2ccccc2)n1C (stereo not given) [2-(2-furoyl)-N-(3-keto-1,5-dimethyl-2-phenyl-3-pyrazolin-4-yl)-3,4-dihydro-1H-isoquinoline-3-carboxamide]
< 4.30	CC(=O)c1cn(CC(=O)NCc2ccc3c(c2)OCO3)c2ccccc12 [2-(3-acetyl-1-indolyl)-N-(1,3-benzodioxol-5-ylmethyl)acetamide]
< 4.30	CN(C)c1ccc(C(=O)c2ccccc2C(=O)O)c(O)c1 [2-(4-Dimethylamino-2-hydroxy-benzoyl)-benzoic acid]
< 4.30	Cc1nn(C)c(C)c1NC(=O)c1ccnn1C [2-Methyl-2H-pyrazole-3-carboxylic acid (1,3,5-trimethyl-1H-pyrazol-4-yl)-amide]
< 4.30	CCOc1ccc(NC(=O)CN2CCN(CC(=O)Nc3ccc4c(c3)OCO4)CC2)cc1 [2-[4-[2-(1,3-benzodioxol-5-ylamino)-2-keto-ethyl]piperazino]-N-p-phenetyl-acetamide]
< 4.30	O=C(CN1CCN(CC(=O)Nc2ccccn2)CC1)Nc1ccccn1 [2-[4-[2-keto-2-(2-pyridylamino)ethyl]piperazino]-N-(2-pyridyl)acetamide]
< 4.30	CCOC(=O)COc1nc(OC)nc(N2CCOCC2)n1 [2-[(4-methoxy-6-morpholino-s-triazin-2-yl)oxy]acetic acid ethyl ester]
